According to US11332459B2 (TEIJIN PHARMA LIMITED, priority 2017, dated 2022):
Structures can show the parent of a compound that is named as a salt.

target: T1, human TRPC6 (Homo sapiens, UniProt Q9Y210); test: TRPC6 calcium flux assay (FLIPR, OAG-stimulated calcium influx); type: cell-based; conditions: HEK293 cells stably transfected with human TRPC6, read-out: hTRPC6 Potency
T1 construct: expressed in transfected cells
T1 sequence (Q9Y210 1-931): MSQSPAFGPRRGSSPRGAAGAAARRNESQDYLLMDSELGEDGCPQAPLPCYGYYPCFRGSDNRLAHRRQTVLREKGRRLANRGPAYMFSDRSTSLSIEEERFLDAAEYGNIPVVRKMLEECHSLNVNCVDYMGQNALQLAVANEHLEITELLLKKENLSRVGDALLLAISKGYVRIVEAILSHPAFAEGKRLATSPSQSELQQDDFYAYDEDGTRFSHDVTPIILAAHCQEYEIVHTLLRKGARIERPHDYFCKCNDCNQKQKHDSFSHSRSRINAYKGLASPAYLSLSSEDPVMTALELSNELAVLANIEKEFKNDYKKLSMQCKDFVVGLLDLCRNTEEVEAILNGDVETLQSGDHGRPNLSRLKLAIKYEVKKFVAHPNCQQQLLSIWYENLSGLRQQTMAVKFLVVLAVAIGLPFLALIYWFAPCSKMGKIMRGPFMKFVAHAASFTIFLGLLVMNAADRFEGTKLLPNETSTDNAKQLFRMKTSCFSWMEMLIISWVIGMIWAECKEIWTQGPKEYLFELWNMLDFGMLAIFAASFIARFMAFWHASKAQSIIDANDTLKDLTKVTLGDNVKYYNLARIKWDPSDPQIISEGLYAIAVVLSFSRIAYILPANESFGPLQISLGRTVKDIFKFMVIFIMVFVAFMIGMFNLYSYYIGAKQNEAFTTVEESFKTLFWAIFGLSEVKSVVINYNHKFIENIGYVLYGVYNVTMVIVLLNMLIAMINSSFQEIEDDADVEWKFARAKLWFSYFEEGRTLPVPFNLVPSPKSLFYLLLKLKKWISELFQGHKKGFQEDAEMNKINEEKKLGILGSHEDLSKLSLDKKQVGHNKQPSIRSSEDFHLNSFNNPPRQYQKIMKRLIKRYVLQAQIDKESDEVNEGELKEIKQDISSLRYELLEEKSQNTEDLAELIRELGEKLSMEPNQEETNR
Method in brief: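 IC50 derived by plotting background-corrected peak fluorescence (180 s window, normalized to OAG-triggered signal vs buffer) against dose. Stable human TRPC6 HEK293 line was dye-loaded, exposed to compound 25 min, then challenged with 50 uM final OAG in 2 mM Ca2+ HEPES buffer pH 7.2, 0.5% DMSO.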

Going from N[C@@H]1CN(c2nc3cc(F)c(F)cc3n2CC(=O)N(CC2CCCO2)C2CCS(=O)(=O)C2)CC[C@H]1F (stereo partly drawn) [Example 541, 2-(2-((3R,4R)-3-amino-4-fluoropiperidin-1-yl)-5,6-difluoro-1H-benzo[d]imidazol-1-yl)-N-(1,1-dioxidotetrahydrothiophen-3-yl)-N-((tetrahydrofuran-2-yl)methyl)acetamide] to CN(C(=O)Cn1c(N2CC[C@@H](F)[C@H](N)C2)nc2cc(F)c(F)cc21)C1CC1 [Example 602, 2-(2-((3R,4R)-3-amino-4-fluoropiperidin-1-yl)-5,6-difluoro-1H-benzo[d]imidazol-1-yl)-N-cyclopropyl-N-methylacetamide], the IC50 falls from over 3750 nM to 5.75 nM.

Going from Cc1nnc(Cn2c(N3CCC(F)(F)[C@H](N)C3)nc3ccc(F)cc32)s1 [Example 588, (R)-4,4-difluoro-1-(6-fluoro-1-((5-methyl-1,3,4-thiadiazol-2-yl)methyl)-1H-benzo[d]imidazol-2-yl)piperidin-3-amine] to N#Cc1ccc(Cn2c(N3CCC(F)(F)C(N)C3)nc3ccc(F)cc32)cc1 (stereo in doubt) [Example 416, 4-((2-((3R)-3-amino-4,4-difluoro-1-piperidinyl)-6-fluoro-1H-benzimidazo-1-yl)methyl)benzonitrile], the IC50 falls from 811 nM to 2.36 nM (340-fold). The second is the more potent here.

Going from CCN(CCOC)C(=O)Cn1c(N2CC[C@@H](F)[C@H](N)C2)nc2ccc(F)cc21 [Example 671, 2-(2-((3R,4R)-3-amino-4-fluoropiperidin-1-yl)-6-fluoro-1H-benzo[d]imidazol-1-yl)-N-ethyl-N-(2-methoxyethyl)acetamide] to CN(C)C(=O)Cn1c(N2CC[C@H](F)[C@H](N)C2)nc2ccc(Cl)cc21 [Example 461, 2-(2-((3R,4S)-3-amino-4-fluoropiperidin-1-yl)-6-chloro-1H-benzo[d]imidazol-1-yl)-N,N-dimethylacetamide], the IC50 falls from 1430 nM to 28.9 nM (49-fold). The second is the more potent here.

First: N[C@H]1CCCN(c2nc3ccccc3n2Cc2ccc(C(=O)O)cn2)C1 [Example 434, (S)-6-((2-(3-aminopiperidin-1-yl)-1H-benzo[d]imidazol-1-yl)methyl)nicotinic acid]
Second: N#Cc1ccc(Cn2c(N3CCC[C@H](N)C3)nc3ccccc32)nc1 [Example 70, (S)-6-((2-(3-aminopiperidin-1-yl)-1H-benzo[d]imidazol-1-yl)methyl)nicotinonitrile]
The IC50 of the first is higher: over 3750 nM for the first, 2.32 nM for the second. The second is the more potent here.

Compared with CS(=O)(=O)c1ccc(Cn2c(N3CC[C@@H](F)[C@H](N)C3)nc3c(F)cc(F)cc32)nc1 [Example 556, (3R,4R)-1-(4,6-difluoro-1-((5-(methylsulfonyl)pyridin-2-yl)methyl)-1H-benzo[d]imidazol-2-yl)-4-fluoropiperidin-3-amine], N[C@@H]1CN(c2nc3cc(F)cc(F)c3n2Cc2ccc(F)cn2)CC[C@H]1F [Example 32, (3R,4R)-1-(5,7-difluoro-1-((5-fluoropyridin-2-yl)methyl)-1H-benzo[d]imidazol-2-yl)-4-fluoropiperidin-3-amine] is 4-fold higher in IC50: 11.9 nM for the first, 47.2 nM for the second.

Compared with COCC1(C#N)CCN(C(=O)Cn2c(N3CC[C@@H](F)[C@H](N)C3)nc3cc(F)c(F)cc32)CC1 [Example 658, 1-(2-(2-((3R,4R)-3-amino-4-fluoropiperidin-1-yl)-5,6-difluoro-1H-benzo[d]imidazol-1-yl)acetyl)-4-(methoxymethyl)piperidine-4-carbonitrile], Cc1cc(Cn2c(N3CC[C@@H](F)[C@H](N)C3)nc3cc(F)c(F)cc32)on1 [Example 579, (3R,4R)-1-(5,6-difluoro-1-((3-methylisoxazol-5-yl)methyl)-1H-benzo[d]imidazol-2-yl)-4-fluoropiperidin-3-amine] is lower in IC50: over 3750 nM for the first, 312 nM for the second.

First: C[C@H](c1ccc(C#N)cc1)n1c(N2CC[C@H](F)[C@H](N)C2)nc2ccccc21 [Example 317, 4-((R)-1-(2-((3R,4S)-3-amino-4-fluoropiperidin-1-yl)-1H-benzo[d]imidazol-1-yl)ethyl)benzonitrile hydrochloride]
Second: Cc1cccc2c1nc(N1CC[C@@H](F)[C@H](N)C1)n2Cc1ccc(C#N)cn1 [Example 121, 6-((2-((3R,4R)-3-amino-4-fluoro-1-piperidinyl)-4-methyl-1H-benzimidazol-1-yl)methyl)-3-pyridinecarbonitrile]
The IC50 of the first is 240-fold higher: 1360 nM for the first, 5.59 nM for the second. The second is the more potent here.

Compared with N[C@@H]1CCCN(c2nc3ccccc3n2Cc2ccc(F)cc2)C1 [Example 387, (R)-1-(1-(4-fluorobenzyl)-1H-benzo[d]imidazol-2-yl)piperidin-3-amine], N#Cc1ccc(Cn2c(N3CCC[C@H](N)C3)nc3ccccc32)c(F)c1 [Example 315, (S)-4-((2-(3-aminopiperidin-1-yl)-1H-benzo[d]imidazol-1-yl)methyl)-3-fluorobenzonitrile hydrochloride] is higher in IC50: 5360 nM for the first, over 50000 nM for the second.

First: C[C@H]1COCCN1C(=O)Cn1c(N2CC[C@@H](F)[C@H](N)C2)nc2ccc(F)cc21 [Example 678, 2-(2-((3R,4R)-3-amino-4-fluoropiperidin-1-yl)-6-fluoro-1H-benzo[d]imidazol-1-yl)-1-((S)-3-methylmorpholino)ethan-1-one]
Second: CN(CC(F)(F)F)C(=O)Cn1c(N2CC[C@@H](F)[C@H](N)C2)nc2ccc(Cl)cc21 [Example 559, 2-(2-((3R,4R)-3-amino-4-fluoropiperidin-1-yl)-6-chloro-1H-benzo[d]imidazol-1-yl)-N-methyl-N-(2,2,2-trifluoroethyl)acetamide]
The IC50 of the first is 5.9-fold higher: 98.3 nM for the first, 16.6 nM for the second. The second is the more potent here.

Going from COc1cc(F)cc2nc(N3CC[C@@H](F)[C@H](N)C3)n(Cc3ccc(C#N)cn3)c12 [Example 476] to CO[C@H]1CCN(c2nc3ccc(F)cc3n2Cc2ncc(Cl)cn2)C[C@H]1N [Example 467, (3R,4S)-1-(1-((5-chloropyrimidin-2-yl)methyl)-6-fluoro-1H-benzo[d]imidazol-2-yl)-4-methoxypiperidin-3-amine], the IC50 falls from 763 nM to 123 nM (6.2-fold). The second is the more potent here.

Going from N#Cc1ccc2nc(N3CCC(F)(F)[C@H](N)C3)n(Cc3ncc(Cl)cn3)c2c1 [Example 41, (R)-2-(3-amino-4,4-difluoropiperidin-1-yl)-1-((5-chloropyrimidin-2-yl)methyl)-1H-benzo[d]imidazole-6-carbonitrile] to N#Cc1ccc2c(c1)CC[C@H]2n1c(N2CCC[C@H](N)C2)nc2ccccc21 [Example 423, (R)-1-(2-((S)-3-aminopiperidin-1-yl)-1H-benzo[d]imidazol-1-yl)-2,3-dihydro-1H-indene-5-carbonitrile], the IC50 rises from 18.4 nM to 151 nM (8.2-fold). The first is the more potent here.

Compared with CC(c1ccccn1)N(C)C(=O)Cn1c(N2CC[C@@H](F)[C@H](N)C2)nc2cc(F)c(F)cc21 (stereo partly drawn) [Example 638, 2-(2-((3R,4R)-3-amino-4-fluoropiperidin-1-yl)-5,6-difluoro-1H-benzo[d]imidazol-1-yl)-N-methyi-N-((S)-1-(pyridin-2-yl)ethyl)acetamide], C[C@H](c1cc(Cl)ccc1Cl)n1c(N2CC[C@@H](F)[C@H](N)C2)nc2cc(F)c(F)cc21 [Example 328, (3R,4R)-1-(1-((1R)-1-(2,5-dichlorophenyl)ethyl)-5,6-difluoro-1H-benzimidazol-2-yl)-4-fluoro-3-piperidinamine] is higher in IC50: 425 nM for the first, over 3750 nM for the second.

CN(CC(F)(F)F)C(=O)Cn1c(N2CC[C@@H](F)[C@H](N)C2)nc2cc(Cl)ccc21 [Example 570, 2-(2-((3R,4R)-3-amino-4-fluoropiperidin-1-yl)-5-chloro-1H-benzo[d]imidazol-1-yl)-N-methyl-N-(2,2,2-trifluoroethyl)acetamide] was tested, and the IC50 was 85.4 nM.
